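96-well plates; 48 h exposure; 5 concentrations. Endpoints by linear interpolation between flanking doses. Not reached: highest tested concentration assigned. GI50: concentration for 50% inhibition of growth.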 Active and inactive are the calls of the source. Cut-off read from the data, not from the text of the source: active = GI50 up to about 1.1 µM and inactive = higher.
Assays:
Assay in all cases: NCI tumour cell line growth inhibition, 48 h
SNB-19 = test system: SNB-19
U-251 = test system: U-251
SK-MEL-28 = test system: SK-MEL-28
OVCAR-4 = test system: OVCAR-4
LOX IMVI = test system: LOX IMVI
TK-10 = test system: TK-10
SN12C = test system: SN12C
A549 = test system: A549
HCT-116 = test system: HCT-116
SK-OV-3 = test system: SK-OV-3
K562 = test system: K562
KM12 = test system: KM12
COLO 205 = test system: COLO 205
NCI-H460 = test system: NCI-H460
786-0 = test system: 786-0
UO-31 = test system: UO-31
HCC 2998 = test system: HCC 2998
DU-145 = test system: DU-145
MDA-MB-435 = test system: MDA-MB-435

Row | Structure (SMILES) | GI50 (SNB-19) | GI50 (U-251) | GI50 (SK-MEL-28) | GI50 (OVCAR-4) | GI50 (LOX IMVI) | GI50 (TK-10) | GI50 (SN12C) | GI50 (A549) | GI50 (HCT-116) | GI50 (SK-OV-3) | GI50 (K562) | GI50 (KM12) | GI50 (COLO 205) | GI50 (NCI-H460) | GI50 (786-0) | GI50 (UO-31) | GI50 (HCC 2998) | GI50 (DU-145) | GI50 (MDA-MB-435)
1 | CCC(CC)NC1=C(NC(C)=O)C(=O)c2ccccc2C1=O | > 50 µM (inactive) | > 50 µM (inactive) | > 50 µM (inactive) | > 50 µM (inactive) | > 50 µM (inactive) | > 50 µM (inactive) | > 50 µM (inactive) | > 50 µM (inactive) | > 50 µM (inactive) | > 50 µM (inactive) | > 50 µM (inactive) | > 50 µM (inactive) | > 50 µM (inactive) | > 50 µM (inactive) | > 50 µM (inactive) | > 50 µM (inactive) | > 50 µM (inactive) | – | –
2 | C=CCCC(C)N(C(=O)OC(C)(C)C)S(=O)(=O)c1ccc(C)cc1 (stereo not given) | > 100 µM (inactive) | > 100 µM (inactive) | > 100 µM (inactive) | > 100 µM (inactive) | > 100 µM (inactive) | > 100 µM (inactive) | > 100 µM (inactive) | > 100 µM (inactive) | > 100 µM (inactive) | > 100 µM (inactive) | > 100 µM (inactive) | > 100 µM (inactive) | > 100 µM (inactive) | > 100 µM (inactive) | > 100 µM (inactive) | > 100 µM (inactive) | > 100 µM (inactive) | – | –
3 | CCN(CC)CCNc1ccc(C)c2sc3ccc(O)cc3c(=O)c12 | 1.82 µM (inactive) | 1.09 µM (active) | 1.49 µM (inactive) | 2.7 µM (inactive) | 0.711 µM (active) | 3.4 µM (inactive) | 0.594 µM (active) | < 0.0431 µM (active) | 1.15 µM (inactive) | 1.52 µM (inactive) | 0.832 µM (active) | 1.43 µM (inactive) | 1.62 µM (inactive) | < 0.0128 µM (active) | 0.655 µM (active) | 1.14 µM (inactive) | 1.36 µM (inactive) | – | –
4 | Oc1nc(CC(O)c2ccc(Cl)c(Cl)c2)cc(-c2ccccc2)n1 (stereo not given) | 67.9 µM (inactive) | > 100 µM (inactive) | > 100 µM (inactive) | 68.4 µM (inactive) | > 100 µM (inactive) | 24.8 µM (inactive) | > 100 µM (inactive) | 27.1 µM (inactive) | 49.8 µM (inactive) | 43.6 µM (inactive) | 51.3 µM (inactive) | 69.3 µM (inactive) | 17.3 µM (inactive) | 94.8 µM (inactive) | > 100 µM (inactive) | 26.2 µM (inactive) | 33.5 µM (inactive) | – | –
5 | COc1ccc(CNc2nc3cc(C(F)(F)F)ccc3nc2C(=O)O)cc1 | 31.2 µM (inactive) | 28.6 µM (inactive) | 37.3 µM (inactive) | 32.9 µM (inactive) | 19.4 µM (inactive) | – | 21.4 µM (inactive) | 28.8 µM (inactive) | 19.2 µM (inactive) | 40.4 µM (inactive) | 24.7 µM (inactive) | 22.4 µM (inactive) | 22.5 µM (inactive) | 31.4 µM (inactive) | 23.1 µM (inactive) | 17.8 µM (inactive) | 31.6 µM (inactive) | 26.7 µM (inactive) | 21.3 µM (inactive)
6 | Cc1cccc(NC(=O)C(=O)C2C(=O)NC(=O)NC2=O)c1C | > 100 µM (inactive) | > 100 µM (inactive) | > 100 µM (inactive) | > 100 µM (inactive) | > 100 µM (inactive) | > 100 µM (inactive) | > 100 µM (inactive) | > 100 µM (inactive) | > 100 µM (inactive) | > 100 µM (inactive) | > 100 µM (inactive) | > 100 µM (inactive) | > 100 µM (inactive) | > 100 µM (inactive) | > 100 µM (inactive) | > 100 µM (inactive) | > 100 µM (inactive) | – | –
7 | Oc1ccc2ccccc2c1OCc1nnc(CCCCCCCCc2nnc(COc3c(O)ccc4ccccc34)o2)o1 | > 100 µM (inactive) | 35.7 µM (inactive) | > 100 µM (inactive) | > 100 µM (inactive) | – | > 100 µM (inactive) | > 100 µM (inactive) | > 100 µM (inactive) | 20.7 µM (inactive) | > 100 µM (inactive) | > 100 µM (inactive) | 25.2 µM (inactive) | > 100 µM (inactive) | > 100 µM (inactive) | 83 µM (inactive) | > 100 µM (inactive) | > 100 µM (inactive) | > 100 µM (inactive) | > 100 µM (inactive)
8 | CCN1CCCc2cc3c(C(F)(F)F)cc(=O)oc3cc21 | > 100 µM (inactive) | > 100 µM (inactive) | > 100 µM (inactive) | > 100 µM (inactive) | 82.2 µM (inactive) | > 100 µM (inactive) | 99.8 µM (inactive) | > 100 µM (inactive) | 91.8 µM (inactive) | > 100 µM (inactive) | 63.8 µM (inactive) | > 100 µM (inactive) | 63.8 µM (inactive) | 82.8 µM (inactive) | 39.4 µM (inactive) | > 100 µM (inactive) | > 100 µM (inactive) | > 100 µM (inactive) | 73.1 µM (inactive)
9 | CCCC(=O)Oc1c2ccsc2c(OC(=O)CCC)c2ccsc12 | 2.6 µM (inactive) | 1.36 µM (inactive) | 0.951 µM (active) | 2.94 µM (inactive) | 0.594 µM (active) | 4.48 µM (inactive) | 1.11 µM (active) | 3.94 µM (inactive) | 1.35 µM (inactive) | 0.75 µM (active) | 1.24 µM (inactive) | 7.64 µM (inactive) | 10.9 µM (inactive) | 1.05 µM (active) | 4.55 µM (inactive) | 2.53 µM (inactive) | 4.14 µM (inactive) | 0.857 µM (active) | 0.305 µM (active)
10 | C=C1c2nc3ccccc3n2C=C(c2ccc(Cl)cc2)N1c1ccc(OC)cc1 | 3.44 µM (inactive) | 8.38 µM (inactive) | 7.57 µM (inactive) | 6 µM (inactive) | 36.9 µM (inactive) | 4.82 µM (inactive) | 11.9 µM (inactive) | 10.9 µM (inactive) | 6.97 µM (inactive) | 10.7 µM (inactive) | 25.6 µM (inactive) | 6.81 µM (inactive) | 21.8 µM (inactive) | 6.47 µM (inactive) | 4.39 µM (inactive) | 6.38 µM (inactive) | 8.85 µM (inactive) | 15.6 µM (inactive) | 8.28 µM (inactive)
11 | NC(=O)C(=O)N/N=C(\CC1(O)C(=O)Nc2ccccc21)c1ccc2ccccc2c1 (stereo not given) | 22.9 µM (inactive) | 25.9 µM (inactive) | 26.9 µM (inactive) | 37.1 µM (inactive) | 30.3 µM (inactive) | 50.2 µM (inactive) | 26.3 µM (inactive) | 20.7 µM (inactive) | 9.48 µM (inactive) | 46.9 µM (inactive) | 23.1 µM (inactive) | 21.7 µM (inactive) | 22.8 µM (inactive) | 34 µM (inactive) | 36.5 µM (inactive) | 40.1 µM (inactive) | 41.5 µM (inactive) | – | –
12 | CC(=O)OC12C=CC(=O)N1c1ccccc1C(=O)O2 (stereo not given) | > 100 µM (inactive) | > 100 µM (inactive) | > 100 µM (inactive) | > 100 µM (inactive) | > 100 µM (inactive) | > 100 µM (inactive) | > 100 µM (inactive) | > 100 µM (inactive) | > 100 µM (inactive) | > 100 µM (inactive) | > 100 µM (inactive) | > 100 µM (inactive) | > 100 µM (inactive) | > 100 µM (inactive) | > 100 µM (inactive) | > 100 µM (inactive) | > 100 µM (inactive) | – | –
13 | O=C1c2ccccc2C(=O)N1CCN(CCN1C(=O)c2ccccc2C1=O)Cn1cccn1 | > 100 µM (inactive) | > 100 µM (inactive) | 73.8 µM (inactive) | > 100 µM (inactive) | > 100 µM (inactive) | > 100 µM (inactive) | > 100 µM (inactive) | > 100 µM (inactive) | 17.8 µM (inactive) | > 100 µM (inactive) | 33.4 µM (inactive) | > 100 µM (inactive) | > 100 µM (inactive) | 84.3 µM (inactive) | > 100 µM (inactive) | > 100 µM (inactive) | > 100 µM (inactive) | – | –
14 | CC(=O)C(=CNc1c(C)n(C)n(-c2ccccc2)c1=O)C(C)=O | > 100 µM (inactive) | > 100 µM (inactive) | – | > 100 µM (inactive) | > 100 µM (inactive) | > 100 µM (inactive) | > 100 µM (inactive) | > 100 µM (inactive) | > 100 µM (inactive) | > 100 µM (inactive) | > 100 µM (inactive) | > 100 µM (inactive) | > 100 µM (inactive) | – | > 100 µM (inactive) | > 100 µM (inactive) | > 100 µM (inactive) | > 100 µM (inactive) | > 100 µM (inactive)
15 | C=CC1(C)CCC(C(C)C(=O)C(C=C(C)C)OC(C)=O)C12C(=O)Oc1ccccc1C2=O (stereo not given) | > 100 µM (inactive) | 38 µM (inactive) | > 100 µM (inactive) | 45.2 µM (inactive) | 35.7 µM (inactive) | > 100 µM (inactive) | 49.4 µM (inactive) | 35.7 µM (inactive) | 31.1 µM (inactive) | 82.2 µM (inactive) | 31.6 µM (inactive) | 44.8 µM (inactive) | 29.4 µM (inactive) | 29.6 µM (inactive) | 84.1 µM (inactive) | 34.4 µM (inactive) | 82.4 µM (inactive) | – | –
16 | COC(=O)C1C(=O)O[C@@H](c2ccc(OC)cc2OC)C1C(=O)OC (stereo not given in full) | > 100 µM (inactive) | > 100 µM (inactive) | > 100 µM (inactive) | > 100 µM (inactive) | > 100 µM (inactive) | > 100 µM (inactive) | > 100 µM (inactive) | > 100 µM (inactive) | > 100 µM (inactive) | > 100 µM (inactive) | > 100 µM (inactive) | > 100 µM (inactive) | > 100 µM (inactive) | > 100 µM (inactive) | > 100 µM (inactive) | > 100 µM (inactive) | > 100 µM (inactive) | – | –

From ChEMBL document CHEMBL1201862, “PubChem BioAssay data set” (2004)
